Converted amounts (≈) assume the structure as drawn.
Columns and labels:
[1] = molecular target: High affinity 3',5'-cyclic-AMP phosphodiesterase 7A (Homo sapiens, UniProt Q13946); assay: Inhibition of PDE7A (unknown origin)
[2] = molecular target: 3',5'-cyclic-AMP phosphodiesterase 4B (Homo sapiens, UniProt Q07343); assay: Inhibition of PDE4B (unknown origin)
[3] = Solubility in phosphate buffer at pH 6.8; assay type: physicochemical
Lymphocyte = assay: Inhibition of IL2 production from mouse activated lymphocytes; assay type: functional, cell-based
[4] = molecular target: cGMP-inhibited 3',5'-cyclic phosphodiesterase 3A (Homo sapiens, UniProt Q14432); assay: Inhibition of PDE3A (unknown origin)
[5] = molecular target: cGMP-specific 3',5'-cyclic phosphodiesterase (Homo sapiens, UniProt O76074); assay: Inhibition of PDE5A (unknown origin)

Sequence of cGMP-inhibited 3',5'-cyclic phosphodiesterase 3A (Q14432 whole entry): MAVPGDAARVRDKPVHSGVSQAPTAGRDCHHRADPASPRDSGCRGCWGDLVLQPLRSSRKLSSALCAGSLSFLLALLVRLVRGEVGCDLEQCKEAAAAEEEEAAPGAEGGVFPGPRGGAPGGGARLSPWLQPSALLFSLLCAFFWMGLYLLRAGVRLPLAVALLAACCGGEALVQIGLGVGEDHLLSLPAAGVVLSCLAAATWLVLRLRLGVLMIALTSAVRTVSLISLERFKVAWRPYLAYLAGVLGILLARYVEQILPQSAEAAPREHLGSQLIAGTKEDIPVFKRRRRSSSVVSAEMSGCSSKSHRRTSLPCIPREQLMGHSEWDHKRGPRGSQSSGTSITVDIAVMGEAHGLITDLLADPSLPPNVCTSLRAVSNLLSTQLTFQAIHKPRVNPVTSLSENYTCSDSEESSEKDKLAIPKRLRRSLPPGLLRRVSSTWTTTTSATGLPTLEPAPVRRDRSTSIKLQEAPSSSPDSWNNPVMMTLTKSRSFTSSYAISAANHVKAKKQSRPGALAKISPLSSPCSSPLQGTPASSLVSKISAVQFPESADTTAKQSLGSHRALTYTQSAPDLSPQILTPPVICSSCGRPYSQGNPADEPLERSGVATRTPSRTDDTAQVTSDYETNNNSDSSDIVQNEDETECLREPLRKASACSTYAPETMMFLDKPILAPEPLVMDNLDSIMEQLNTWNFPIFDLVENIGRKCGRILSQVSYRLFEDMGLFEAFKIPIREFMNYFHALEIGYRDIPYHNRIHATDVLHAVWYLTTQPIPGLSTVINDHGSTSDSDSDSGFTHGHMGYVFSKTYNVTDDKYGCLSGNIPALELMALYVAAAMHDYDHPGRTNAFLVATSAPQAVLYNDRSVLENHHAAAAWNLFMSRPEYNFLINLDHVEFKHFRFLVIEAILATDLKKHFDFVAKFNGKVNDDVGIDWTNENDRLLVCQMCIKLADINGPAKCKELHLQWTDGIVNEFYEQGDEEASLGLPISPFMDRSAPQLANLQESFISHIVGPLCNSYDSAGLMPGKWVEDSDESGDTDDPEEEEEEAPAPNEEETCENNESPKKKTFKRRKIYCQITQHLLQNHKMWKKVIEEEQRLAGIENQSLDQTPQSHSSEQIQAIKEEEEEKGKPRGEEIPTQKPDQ
Sequence of 3',5'-cyclic-AMP phosphodiesterase 4B (Q07343 whole entry): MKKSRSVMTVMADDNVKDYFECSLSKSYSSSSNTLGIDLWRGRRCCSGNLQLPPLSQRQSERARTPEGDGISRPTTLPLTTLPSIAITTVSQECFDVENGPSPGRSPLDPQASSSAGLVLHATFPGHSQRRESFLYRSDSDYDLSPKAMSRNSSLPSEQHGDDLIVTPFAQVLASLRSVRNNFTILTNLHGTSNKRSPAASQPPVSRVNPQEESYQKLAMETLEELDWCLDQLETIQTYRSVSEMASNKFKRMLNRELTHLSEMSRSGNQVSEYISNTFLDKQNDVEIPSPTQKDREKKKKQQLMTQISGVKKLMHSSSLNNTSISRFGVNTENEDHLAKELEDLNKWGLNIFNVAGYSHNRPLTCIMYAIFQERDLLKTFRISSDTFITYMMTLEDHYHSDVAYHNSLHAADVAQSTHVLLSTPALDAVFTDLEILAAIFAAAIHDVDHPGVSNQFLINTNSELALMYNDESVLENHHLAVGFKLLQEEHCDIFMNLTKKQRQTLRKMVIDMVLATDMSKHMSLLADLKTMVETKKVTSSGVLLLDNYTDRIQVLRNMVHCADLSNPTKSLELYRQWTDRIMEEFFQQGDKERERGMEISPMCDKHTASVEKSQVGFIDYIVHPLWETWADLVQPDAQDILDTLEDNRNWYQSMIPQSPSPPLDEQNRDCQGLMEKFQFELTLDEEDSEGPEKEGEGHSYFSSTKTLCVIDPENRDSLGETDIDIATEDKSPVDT
Sequence of High affinity 3',5'-cyclic-AMP phosphodiesterase 7A (Q13946 whole entry): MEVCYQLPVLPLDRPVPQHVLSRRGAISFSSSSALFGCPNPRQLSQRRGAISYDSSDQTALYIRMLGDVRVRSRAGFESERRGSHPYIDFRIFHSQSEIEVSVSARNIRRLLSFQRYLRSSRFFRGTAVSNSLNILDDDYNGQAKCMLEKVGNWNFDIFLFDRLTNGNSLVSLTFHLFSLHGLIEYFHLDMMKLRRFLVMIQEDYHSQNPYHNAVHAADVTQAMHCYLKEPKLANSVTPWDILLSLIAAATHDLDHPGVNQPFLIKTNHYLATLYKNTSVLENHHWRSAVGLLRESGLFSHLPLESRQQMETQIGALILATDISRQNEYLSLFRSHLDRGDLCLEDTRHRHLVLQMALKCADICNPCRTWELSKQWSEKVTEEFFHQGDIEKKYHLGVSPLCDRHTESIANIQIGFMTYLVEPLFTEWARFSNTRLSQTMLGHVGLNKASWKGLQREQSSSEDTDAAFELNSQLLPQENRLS

| SMILES | IC50 [1] [nM] | IC50 [2] [nM] | solubility [3] [µg/mL] | IC50 (Lymphocyte) [nM] | IC50 [4] [nM] | IC50 [5] [nM] |
| --- | --- | --- | --- | --- | --- | --- |
| CCn1c(Nc2ccccc2Cl)nc2ccsc2c1=O | 41 | 3000 | 6.3 (≈ 20.6 µM) |  |  |  |
| CCn1c(Nc2ccncc2F)nc2c(C#N)csc2c1=O | 25 | 670 | 3.5 (≈ 11.1 µM) |  |  |  |
| CCn1c(NC2CCCC2)nc2ccsc2c1=O |  |  | 12.1 (≈ 45.9 µM) |  |  |  |
| CCn1c(Nc2ccccc2C)nc2ccsc2c1=O | 88 | 4300 | 10.1 (≈ 35.4 µM) |  |  |  |
| CCn1c(Nc2ccncc2F)nc2c(CCCO)csc2c1=O | 3.9 | 180 | 31.3 (≈ 89.8 µM) | 480 |  |  |
| CCn1c(Nc2cccc(C)c2)nc2ccsc2c1=O | > 1000 |  | 65.5 (≈ 230 µM) |  |  |  |
| CCn1c(Nc2ccncc2F)nc2c(C(C)O)csc2c1=O (stereo not given) | 8.7 | 610 | 5.4 (≈ 16.1 µM) | 1700 |  |  |
| CCn1c(Nc2cccnc2)nc2ccsc2c1=O | > 1000 |  | 41.6 (≈ 153 µM) |  |  |  |
| CCn1c(Nc2ccncc2F)nc2c(C(C)(C)O)csc2c1=O | 2.1 | 56 | 17.9 (≈ 51.4 µM) | 260 |  |  |
| CCn1c(Nc2ccccc2C#N)nc2ccsc2c1=O | 2300 |  | 0.4 (≈ 1.35 µM) |  |  |  |
| CCc1ccccc1Nc1nc2ccsc2c(=O)n1CC | > 1000 |  | 1.9 (≈ 6.35 µM) |  |  |  |
| CCn1c(Nc2ccccc2F)nc2ccsc2c1=O | 61 | 2700 | 26.1 (≈ 90.2 µM) |  |  |  |
| CCn1c(Nc2ccc(C)cc2)nc2ccsc2c1=O | > 1000 |  | 84 (≈ 294 µM) |  |  |  |
| CCn1c(Nc2ccncc2F)nc2c(C3CCCN(C(=O)OC)C3)csc2c1=O (stereo not given) | 0.68 | 280 | 48.9 (≈ 113 µM) | 160 | 29 | 520 |
| CCn1c(Nc2ccncc2F)nc2c(C3CCN(C(=O)OC)CC3)csc2c1=O | 1.1 | 310 | 0.9 (≈ 2.09 µM) |  |  |  |
| CCn1c(Nc2ccncc2F)nc2c(C3CCCN(C(=O)C(C)(C)CO)C3)csc2c1=O (stereo not given) | 1.2 | 180 | 22.7 (≈ 47.9 µM) | 130 | 37 | > 10000 |
| CCn1c(Nc2ccncc2)nc2ccsc2c1=O | 630 | 30000 | 111 (≈ 408 µM) |  |  |  |
| CCn1c(Nc2ccccc2)nc2ccsc2c1=O | 290 | 7400 | 19.5 (≈ 71.9 µM) |  |  |  |
| CCn1c(Nc2ccncc2F)nc2ccsc2c1=O | 60 | 5300 | 120 (≈ 413 µM) |  |  |  |
| CCn1c(Nc2ccncc2F)nc2c(C3CCCN(C(=O)C4(C#N)CC4)C3)csc2c1=O (stereo not given) | 0.32 | 20 | 28.1 (≈ 60.2 µM) | < 100 | 17 | 2900 |
